Values of other authors as cited in publication PMC7992120 (Nature chemical biology, 2018).

Legend:
[1] = tested on: human bradykinin 1 receptor (B1R); conditions: for affinity for B1R of peptides lacking N-terminal lysine (in words): no reference at the sentence (Fig. 1)
[2] = tested on: human bradykinin 2 receptor (B2R); conditions: for affinity for B2R (in words): agonist
[3] = tested on: B2R, "these residues" replaced by alanine or positively charged amino acids; conditions: replacement by alanine or positively charged amino acids
dog B1R = conditions: D^7.29 replaced by Asn

| Substance | affinity for B2R, Figure 1 legend (in words) [2] | affinity for B2R (in words) [2] | affinity for B1R of peptides lacking N-terminal lysine (in words) ([1]; human B1R) | other results |
| --- | --- | --- | --- | --- |
| KRPPGFSPL [DALK] | – | – | – | B1R antagonism / affinity (in words) ([1]; B1R antagonist): high-affinity antagonist for B1R |
| bradykinin (RPPGFSPFR; Bradykinin; UniProt P01042 381-389, looked up) [BK] | high-affinity ligands for B2R | high-affinity agonists | rather low affinity to the B1R | BK binding of mutant (in words) [3]: substantially impairs BK binding in B2R |
| desArg^9-bradykinin [DABK] | – | – | rather low affinity to the B1R | affinity for B2R of desArg peptides (in words) [2]: only weak binding affinity to the B2R; affinity for B1R, Figure 1 legend (in words) ([1]; human B1R): not DABK, binds with high affinity to B1R; selectivity between DAKD and DABK (in words) (dog B1R): no significant selectivity between DAKD and DABK |
| kallidin [KD] | high-affinity ligands for B2R | high-affinity agonists | – | – |
